According to patent US6849612B2, “Oligonucleotide modulation of cell adhesion” (ISIS Pharmaceuticals, Inc., priority 1993, dated 2005):
Strand notation (5' to 3'): a small letter for the sugar, then the base; units joined by * are phosphorothioate-linked, units joined directly phosphodiester-linked; [ ] holds rarer units or linkages, { } end groups; capitals alone tell only the bases. d = 2'-deoxy (DNA)

How the values were obtained:
[1] = system: adherence of HL-60 cells to human umbilical vein endothelial cells; assay: Cell adherence assay: DMSO differentiated HL-60 cells to TNF treated HUVEC; assay type: cell-based
Description: Target cells are grown as a monolayer in a multiwell plate, treated with oligonucleotide followed by cytokine. The adhering cells are then added to the monolayer cells and incubated for 30 to 60 minutes at 37° C. and washed to remove nonadhering cells. Cells adhering to the monolayer may be determined either by directly counting the adhering cells or prelabeling the cells with a radioisotope such as ^51Cr and quantitating the radioactivity associated with the monolayer as described. Dustin and Springer, J. Cell Biol. 1988, 107, 321-331. Antisense oligonucleotides may target either ICAM-1, VCAM-1 or ELAM-1 in the assay.
An example of the effects of antisense oligonucleotides targeting ICAM-1 mRNA on the adherence of DMSO differentiated HL-60 cells to tumor necrosis factor treated human umbilical vein endothelial cells is shown in FIG. 7. Human umbilical vein endothelial cells were grown to 80% confluence in 12 well plates. The cells were treated with 2 μM oligonucleotide diluted in Opti-MEM containing 8 μM DOTMA for 4 hours at 37° C. The medium was removed and replaced with fresh endothelial cell growth medium (EGM-UV) containing 2 μM of the indicated oligonucleotide and incubated 4 hours at 37° C. Tumor necrosis factor, 1 ng/ml, was added to cells as indicated and cells incubated for an additional 19 hours. The cells were washed once with EGM-UV and 1.6×10^6 HL-60 cells differentiated for 4 days with 1.3% DMSO added. The cells were allowed to attach for 1 hour at 37° C. and gently washed 4 times with Dulbecco's phosphate-buffered saline (D-PBS) warmed to 37° C. Adherent cells were detached from the monolayer by addition of 0.25 ml of cold (4EC) phosphate-buffered saline containing 5 mM EDTA and incubated on ice for 5 minutes. The number of cells removed by treatment with EDTA was determined by counting with a hemocytometer. Endothelial cells detached from the monolayer by EDTA treatment could easily be distinguished from HL-60 cells by morphological differences. In the absence of tumor necrosis factor, 3% of the HL-60 cells bound to the endothelial cells. Treatment of the endothelial cell monolayer with 1 ng/ml tumor necrosis factor increased the number of adhering cells to 59% of total cells added (FIG. 7).
Human umbilical vein endothelial (HUVEC) cells were grown and treated with oligonucleotides as in Example 4. Cells were treated with either ISIS 1939, ISIS 1940, or the control oligonucleotide ISIS 1821 for 4 hours, then stimulated with TNF-α for 20 hours. Basal HUVEC minimally bound HL-60 cells, while TNF-stimulated HUVEC bound 19% of the total cells added. Pretreatment of the HUVEC monolayer with 0.3 ìM ISIS 1939 reduced the adherence of HL-60 cells to basal levels, as shown in FIG. 11.

ICAM-1 [2] = assay: ELISA screening for ICAM-1 expression in interleukin-1β-stimulated cells (HUVEC and A549); assay type: cell-based, human; details: for inhibition of ICAM-1 expression, relative activity in words: interleukin-1β-stimulated cells, two cell lines (HUVEC, A549); for inhibition of ICAM-1 expression after premixing with respective sense strand: premixed/prehybridized at equal molar concentrations with sense strand (ISIS 1575 or ISIS 2115)
ICAM-1 [3] = assay: ELISA of ICAM-1 expression in A431 cells; assay type: cell-based; details: human epidermal carcinoma A431 cells
Description: (§1) Expression of ICAM-1, VCAM-1 and ELAM-1 on the surface of cells can be quantitated using specific monoclonal antibodies in an ELISA. Cells are grown to confluence in 96 well microtiter plates. The cells are stimulated with either interleukin-1 or tumor necrosis factor for 4 to 8 hours to quantitate ELAM-1 and 8 to 24 hours to quantitate ICAM-1 and VCAM-1. Following the appropriate incubation time with the cytokine, the cells are gently washed three times with a buffered isotonic solution containing calcium and magnesium such as Dulbecco's phosphate buffered saline (D-PBS). The cells are then directly fixed on the microtiter plate with 1 to 2% paraformaldehyde diluted in D-PBS for 20 minutes at 25° C. The cells are washed again with D-PBS three times. Nonspecific binding sites on the microtiter plate are blocked with 2% bovine serum albumin in D-PBS for 1 hour at 37° C. Cells are incubated with the appropriate monoclonal antibody diluted in blocking solution for 1 hour at 37° C. Unbound antibody is removed by washing the cells three times with D-PBS. Antibody bound to the cells is detected by incubation with a 1:1000 dilution of biotinylated goat anti-mouse IgG (Bethesda Research Laboratories, Gaithersburg, Md.) in blocking solution for 1 hour at 37° C. Cells are washed three times with D-PBS and then incubated with a 1:1000 dilution of streptavidin conjugated to β-galactosidase (Bethesda Research Laboratories) for 1 hour at 37° C. The cells are washed three times with D-PBS for 5 minutes each. The amount of β-galactosidase bound to the specific monoclonal antibody is determined by developing the plate in a solution of 3.3 mM chlorophenolred-β-D-galactopyranoside, 50 mM sodium phosphate, 1.5 mM MgCl2; pH=7.2 for 2 to 15 minutes at 37° C. The concentration of the product is determined by measuring the absorbance at 575 nm in an ELISA microtiter plate reader. […]
(§2) Cells grown in 96-well plates were washed three times with Opti-MEM (GIBCO, Grand Island, N.Y.) prewarmed to 37° C. […] ICAM-1 expression was determined as described in Example 1. […]

ICAM-1 [4] = assay: ELISA of ICAM-1 expression in primary human keratinocytes; assay type: cell-based
Description: as §1, §2

Row | Substance | HL-60 cells adhering, % of total cells added ([1]; 2 μM oligonucleotide, HUVEC treated with 1 ng/ml tumor necrosis factor, control 59%) | number of HL-60 cells adhering to the monolayer ([1]; 2 μM oligonucleotide, absence of tumor necrosis factor treatment) | inhibition of ICAM-1 expression, relative activity in words (ICAM-1 [2]) | inhibition of ICAM-1 expression after premixing with respective sense strand (ICAM-1 [2]) | inhibition of ICAM-1 expression (ICAM-1 [3]) | inhibition of ICAM-1 expression (ICAM-1 [4]) | adherence of HL-60 cells ([1]; 0.3 μM oligonucleotide, TNF-α stimulated HUVEC (control bound 19%))
1 | ISIS 1570: phosphorothioate, human ICAM-1 AUG Codon (64-81), SEQ ID NO 1, TGGGAGCCATAGCGAGGC (antisense dT*dG*dG*dG*dA*dG*dC*dC*dA*dT*dA*dG*dC*dG*dA*dG*dG*dC) | 17% | did not change the number of cells adhering | most active | blocked the effects of ISIS 1570 | inhibit ICAM-1 expression | inhibit ICAM-1 expression | 
2 | ISIS 1939: P=S, human ICAM-1 3′-Untranslated (1952-1971), SEQ ID NO 15, CCCCCACCACTTCCCCTCTC (antisense dC*dC*dC*dC*dC*dA*dC*dC*dA*dC*dT*dT*dC*dC*dC*dC*dT*dC*dT*dC) |  |  | most active | completely blocked | inhibit ICAM-1 expression | inhibit ICAM-1 expression | basal levels
